This is an account of results in US7300937B2, “Derivatives of cyano-aryl (or cyanoheteroaryl)-carbonyl-piperazinyl-pyrimidines, their preparation and application as medication” (Laboratorios del Dr. Esteve, S.A., priority 2001, dated 2007).

SMILES strings stand for the structures. Structures can show the parent of a compound that is named as a salt. Marks after values point to notes of the source that are not given here.

For one series, the system named is mice. Put plainly: Sedative activity in mice (behaviour observation). The format is in vivo, mouse. On the set-up: unit not given here. The following applies: 80 mg/kg i.p. The protocol:
The sedative activity was studied by observing the animals' behaviour after intraperitoneal (i.p.) administration of a dose of 80 mg/kg. This observation was conducted at different times, allowing to know the sedative effect and its duration.

A further series relates to mouse. The experiment in a line: Anaesthetic activity in mice (IV, loss of three reflexes). The note with it: for time of anaesthesia: average time.
Series [1] has as its system body tone and abdominal tone of the rats. The experiment in a line: Myorelaxant activity in the IRWIN test in rats. The following applies: 80 mg/kg ip. The format is in vivo, rat. On the procedure: The activity as muscular relaxant of the products of the invention was studied, by evaluating the effect on body tone and abdominal tone of the rats, following the method described by S. IRWIN (Gordon Res. Conf. on Medicinal Chem.,1959. p.133). The rats received the products under study in a dose of 80 mg/kg ip, and at several times after administration (½, 1, 2, 3, 4 and 5 hours) the body and abdominal tone were evaluated, comparing muscle tension to that of the control animals.

The next series has as its system dog. The experiment in a line: Anaesthetic activity in dogs (IV infusion). The note with it: IV infusion 5 mg/ml/minute until fully anaesthetised.
For another series, the system named is rat. Put plainly: Anaesthetic activity in rats (IV infusion to maintain full anaesthesia for 1 hour). The following applies: IV infusion required to maintain full anaesthesia for 1 hour.
Series [2] deals with convulsions induced by IV injection of pentamethylentetrazol (cardiazol). Put plainly: Anticonvulsive activity in mice (convulsions due to cardiazol). The format is in vivo, mouse. The following applies: for ED50: Mus musculus; for % Activity: mice, cardiazol 45 mg/kg IV.

Procedure for dog: A saline solution of the product in study was perfused by means of a perfusion pump in a concentration and rate of 5 mg/ml/minute, through a cannula inserted in a vein of the front leg.
Procedure for mouse: The anaesthetic activity was determined after intravenous (IV) administration of the product under study in three different doses (15, 10 and 5 mg/kg) in the caudal vein of the mouse. The percentage of anaesthetised animals was recorded and the average time of anaesthesia calculated. Mice were considered to be anaesthetised when losing the three reflexes: positional reflex, response to painful stimulus reflex (prick in the tail) and palpebral reflex.

One may read the melting point as the temperature of the solid-liquid transition. Consider `CCOc1ccnc(N2CCN(C(=O)c3ccccc3C#N)CC2)n1` (as salt: HCl) [Example 4, 2-[4-(2-cyanobenzoyl)-1-piperazinyl]-4-ethoxypyrimidine hydrochloride], for which the melting point is 147 to 151 °C.
Broadly, the ED50 is the midpoint of the dose-response relation. Take `CCOc1ccnc(N2CCN(C(=O)c3ccccc3C#N)CC2)n1` [Example 4, 2-[4-(2-cyanobenzoyl)-1-piperazinyl]-4-ethoxypyrimidine hydrochloride]: the Sedative activity amounted to 90 in the series on mice (30′); 75 with mice (1 h); 75 in the series on mice (2 h); 35 in the series on mice (3 h); 0 in the series on mice (4 h); 0 with mice (5 h). This compound also gave a Sedative activity in the series on mice (24 h) of 0. In addition, the “% anaesthetised” value in the series on mouse (5 mg/kg iv) was determined as 0%; in the series on mouse (10 mg/kg iv), 100%; in the series on mouse (15 mg/kg iv), 100%. For the same compound, the time of anaesthesia with mouse (10 mg/kg iv) is listed as 2.6 ′; in the series with mouse (15 mg/kg iv) it was 5.8 ′. Further, the “% muscular relaxation” value in series [1] (after 1 h.) worked out at 100%; in series [1] (after 2 h.), 100%; in series [1] (after 3 h.), 70%; in series [1] (after 4 h.) it was 33%; in series [1] (after 5 h.), 0%; in series [1] (after ½ h.), 100%. The compound also gave an Anaesthetic dose with dog of 10.1 mg/kg. This compound also yielded a Total dose in the series with rat of 56.8 mg/kg. In series [2], it took a dose of 25.1 mg/kg to reach the 50% effect level (ED50). In addition, the “% Activity” value is listed as 40% in series [2] (20 mg/kg i.p.), 69% in series [2] (40 mg/kg i.p.) and 87% in series [2] (80 mg/kg i.p.).
Take `CC(C)c1cccc(C(C)C)c1O` [Propofol, reference compound]: the “% anaesthetised” value with mouse (5 mg/kg iv) was 0%; with mouse (10 mg/kg iv) it was 80%; with mouse (15 mg/kg iv), 80%. For the same compound, the figures for the time of anaesthesia in the series with mouse (10 mg/kg iv) and with mouse (15 mg/kg iv) were 1 ′ and 1.3 ′, respectively. Further, the “% muscular relaxation” value in series [1] (after 1 h.) is given as 100%; in series [1] (after 2 h.) it was 70%; in series [1] (after 3 h.), 0%; in series [1] (after 4 h.), 0%; in series [1] (after 5 h.), 0%; in series [1] (after ½ h.) it was 100%. Also, the Anaesthetic dose in the series with dog is listed as 21.6* mg/kg. The compound also gave a Total dose with rat of 67 mg/kg. Besides, in series [2], it took a dose of 32.5 mg/kg to reach the 50% effect level (ED50). Also, the “% Activity” value in series [2] (20 mg/kg i.p.) amounted to 33%; in series [2] (40 mg/kg i.p.), 46%; in series [2] (80 mg/kg i.p.), 100%.
Regarding `Cc1ccc(-c2nc3ccc(C)cn3c2CC(=O)N(C)C)cc1` [Zolpidem, reference compound], the Sedative activity is listed as 100 in the series on mice (30′); 90 in the series on mice (1 h); 30 in the series with mice (2 h); 0 in the series on mice (3 h); 0 with mice (4 h); 0 in the series on mice (5 h). In addition, in the series with mice (24 h), the Sedative activity worked out at 0.
